Measured values taken from publication PMC12132910, “A Novel Inhibitor against the Bromodomain Protein 1 of the Malaria Pathogen Plasmodium Falciparum” (Chemmedchem, 2025).
Several values for one entry are separate records, joined by “and”; a condition that tells them apart may be missing. Equal entries are not always repeated.

What follows are compounds tested on P. falciparum K1 (multidrug resistant) (assay: Malaria SYBR green I based fluorescence assay, dose response, K1). Settings: Plasmodium falciparum, K1, 72 h, read-out: EC50 K1.
Format: cell-based
Experimental: (§1) The BRDi compounds had modest activity against all three strains (Table 2 ). […]
resistant strain K1, MRA-159, contributed by Dennis E. Kyle. […]
(§2) Shield1. Parasites were propagated in human red blood cells (blood group 0+) obtained from the Bavarian Red Cross service (BRK) and cultivated under standard conditions in RPMI 1640 (ThermoFisher) supplemented with 0.5% Albumax
(§3) (ThermoFisher), 20 µg/ml Gentamycin, 25 mM Hepes (pH 7.3), and 0.02% hypoxanthine in an atmosphere of 1% O2, 5% CO2, 94% N2.
(§4) Malaria SYBR green I based fluorescence assay
(§5) SYBR Green I based fluorescence assays to determine dose-response curves were performed essentially as described previously (Leidenberger et al., 2017). Briefly, parasite cultures were diluted to 1% ring stage parasitemia and cultivated at 2.5% haematocrit in 96 well plates in the presence of serial half-log dilutions of the compounds ranging from 100 µM to 10 nM or DMSO (dimethyl sulfoxide) corresponding to the highest concentration (0.1%). Chloroquine (C6628, Sigma-Aldrich) was used as control that was not expected to target PfBDP1 and was titrated from 5 µM to 1.6 nM. After 72 hours, cultures were lysed in lysis buffer (20 mM Tris-HCl, 5 mM EDTA, 0.008% saponin (Sigma-Aldrich), 0.08% Triton X (Sigma-Aldrich), 1:10,000 SYBR Green I dye (Invitrogen)) and fluorescence was measured in a Fluoroskan Ascent FL reader (excitation: 485 nm, emission: 530 nm). […]
For `Cc1cc(C(N)=O)cc(C)c1-c1[nH]c(C)c2c1CCCCC2=O` [RMM25, 3,5-Dimethyl-4-(3-methyl-4-oxo-2,4,5,6,7,8-hexahydrocyclohepta[c]pyrrol-1-yl)benzamide], the EC50 was 7.35 µM.

The compounds below were run on P. falciparum NF54 (assay: Malaria SYBR green I based fluorescence assay, dose response, NF54). Settings: Plasmodium falciparum, blood stage culture, 72 hours, mean (SD), 1 to 3 biological replicates.
Format: cell-based
Experimental: as §1, §2, §3, §4, §5
Compound `Cc1cc(C(N)=O)cc(C)c1-c1[nH]c(C)c2c1CCCCC2=O` [RMM25, 3,5-Dimethyl-4-(3-methyl-4-oxo-2,4,5,6,7,8-hexahydrocyclohepta[c]pyrrol-1-yl)benzamide] has an EC50 of 12.2 µM.

What follows are compounds tested against PfBDP1-BRD (Plasmodium falciparum, UniProt Q8IJ72) (assay: Isothermal titration calorimetry (ITC) with PfBDP1-BRD). Settings: 25 °C, PBS pH 7.4, read-out: K D.
PfBDP1-BRD, sequence (Q8IJ72 entry or part of it): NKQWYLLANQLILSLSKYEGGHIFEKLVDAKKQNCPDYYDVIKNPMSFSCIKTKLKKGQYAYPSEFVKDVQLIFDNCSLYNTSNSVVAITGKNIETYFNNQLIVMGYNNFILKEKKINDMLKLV
Format: binding
Experimental: and incubated at 37 °C and 180 rpm until an OD600 of ~2.5. The culture was cooled to 18 °C, induced with 0.2 mM IPTG, and incubated for 16 hours overnight. Cells were harvested by centrifugation (Beckman Coulter Avanti J-26 XP, Rotor: JLA 8.100 Rotor) at 5000 x g for 15 min at 4 °C.
The cell pellet was resuspended in PBS (1:3 w/v). The suspension was lysed by sonication (Branson Digital Sonifier 250; 15 min, 3 sec pulse, 10 sec pause, amplitude 70%) at 4 °C. Insoluble debris was removed by centrifugation (Beckmann Coulter Avanti-J30 I, Rotor: 30.50Ti) at 80,000 x g for 45 min at 4 °C. The lysate was then sterile-filtered (0.45 µm) and purified by […] affinity chromatography. The protein was cleaved using either PreScission Protease (PfBDP1-BRD-construct) or TEV Protease (PvBDP1-BRD-construct) separating the bromodomain from the fusion protein. Further separation of the cleaved GST tag and any remaining GST fusion protein was achieved by an additional round of GST affinity chromatography.
Specifically, we used Glutathione Sepharose High Performance (HP) resin (Cytiva, 17-5279-01). A 25 mL batch of resin was self-packed into a column, equilibrated with PBS, and used to purify GST-tagged proteins. The cleaved bromodomain, which […]
Following this step, the bromodomain protein was further purified by size exclusion chromatography using a HiLoad 26/600 Superdex 75 pg column (GE Healthcare).
Isothermal Titration Calorimetry (ITC)
Affinity was measured using a MicroCal VP-ITC microcalorimeter (Malvern Instruments). Measurements were performed at 25 °C with the ligand (0.04 mM) in PBS (Phosphate buffer saline; 137 mM NaCl, 10 mM phosphate, 2.7 mM KCl; pH 7.4) buffer present in the cell and the protein (0.4 mM) injected via a stirred syringe (351 revolutions per minute) in 5 min intervals (1 injection of 6 µL and 20 injections of 13.5 µL). Solutions were degassed prior to measurements. The first injection was discarded to account for any potential diffusion during equilibration. Automated baseline correction and peak integration were conducted using NITPIC[1,2]. Analysis, fitting, and thermodynamic calculations were performed using a binary interaction model in SEDPHAT[3], and plots were generated using GUSSI[4]. Confidence intervals were calculated using the “Automatic Confidence Interval Search with Projection” method in SEDPHAT. During the confidence level search, the confidence level was set to 0.99, and Simplex optimization was applied prior to Marquardt-Levenberg at each step. Error Surface Projection was performed by alternating between Simplex and Marquardt-Levenberg algorithms until convergence was achieved.
Supporting Table S1. Amino acid sequences of proteins used in this […]
PfBDP1-BRD Construct (Uniprot: Q8IJ72; Residues: 333-456)
The construct includes an N-terminal GST-tag followed by a Prescission protease cleavage site. After cleavage, the purified protein retains an additional […] sequence at […]
the N-terminus, which originates from the vector's multiple cloning site. […]
For `Cc1[nH]c(-c2cccc(N)c2)c2c1C(=O)CCCC2` [MPM2], the Kd was 6.7 µM and 6.74 µM.
In the case of `Cc1[nH]c(-c2ccccc2)c2c1C(=O)CCCC2` [MPM3, 3-Methyl-1-phenyl-5,6,7,8-tetrahydrocyclohepta[c]pyrrol-4(2H)-one], the Kd is reported as 10 µM and 10.4 µM.
Work on `Cc1[nH]c(-c2cccc(C(N)=O)c2)c2c1C(=O)CCCC2` [MPM8] yielded a Kd of 7.45 µM.
`Cc1[nH]c(-c2ccccc2Cl)c2c1C(=O)CCCC2` [RMM1] was tested, and the Kd was 5.8 µM and 5.81 µM.
For `Cc1ccccc1-c1[nH]c(C)c2c1CCCCC2=O` [RMM2], the Kd was 3.9 µM and 3.94 µM.
With `CCc1ccccc1-c1[nH]c(C)c2c1CCCCC2=O` [RMM3] the Kd was 9.17 µM.
With `Cc1[nH]c(-c2ccccc2C(F)(F)F)c2c1C(=O)CCCC2` [RMM4] the Kd was 2.9 µM and 2.94 µM.
`COc1ccccc1-c1[nH]c(C)c2c1CCCCC2=O` [RMM5] was tested, and the Kd was 7.13 µM.
For `Cc1cccc(-c2[nH]c(C)c3c2CCCCC3=O)c1` [RMM6, 3-Methyl-1-(m-tolyl)-5,6,7,8-tetrahydrocyclohepta[c]pyrrol-4(2H)-one], the Kd was 6.2 µM and 6.22 µM.
In the case of `Cc1[nH]c(-c2cccc([N+](=O)[O-])c2)c2c1C(=O)CCCC2` [RMM7, 3-Methyl-1-(3-nitrophenyl)-5,6,7,8-tetrahydrocyclohepta[c]pyrrol-4(2H)-one], the Kd is reported as 16.9 µM.
For `CNc1cccc(-c2[nH]c(C)c3c2CCCCC3=O)c1` [RMM8, 3-Methyl-1-(3-(methylamino)phenyl)-5,6,7,8-tetrahydrocyclohepta[c]pyrrol-4(2H)-one], the Kd was 9.16 µM.
For `Cc1[nH]c(-c2cccc(N(C)C)c2)c2c1C(=O)CCCC2` [RMM9, 1-(3-(dimethylamino)phenyl)-3-methyl-5,6,7,8-tetrahydrocyclohepta[c]pyrrol-4(2H)-one], the Kd was 8.03 µM.
With `CC(=O)Nc1cccc(-c2[nH]c(C)c3c2CCCCC3=O)c1` [RMM10] the Kd was 6.96 µM.
With `Cc1[nH]c(-c2cccc(NS(C)(=O)=O)c2)c2c1C(=O)CCCC2` [RMM11] the Kd was 4.7 µM.
In the case of `Cc1[nH]c(-c2cccc(S(N)(=O)=O)c2)c2c1C(=O)CCCC2` [RMM13], the Kd is reported as 4.9 µM and 4.93 µM.
`Cc1ccc(-c2[nH]c(C)c3c2CCCCC3=O)cc1` [RMM14] showed a Kd of 11.7 µM.
`Cc1[nH]c(-c2ccc(C(N)=O)cc2)c2c1C(=O)CCCC2` [RMM15] showed a Kd of 4.49 µM.
`CNC(=O)c1ccc(-c2[nH]c(C)c3c2CCCCC3=O)cc1` [RMM16] gave a Kd of 5.14 µM.
Compound `Cc1[nH]c(-c2ccc(C(=O)N(C)C)cc2)c2c1C(=O)CCCC2` [RMM17] has a Kd of 42.4 µM.
`Cc1[nH]c(-c2ccc(C#N)cc2)c2c1C(=O)CCCC2` [RMM18] gave a Kd of 4.54 µM.
`Cc1[nH]c(-c2ccc(S(N)(=O)=O)cc2)c2c1C(=O)CCCC2` [RMM19] gave a Kd of 6.39 µM.
`Cc1ccc(NS(C)(=O)=O)cc1-c1[nH]c(C)c2c1CCCCC2=O` [RMM20] showed a Kd of 8.17 µM.
`Cc1[nH]c(-c2cccc(NS(C)(=O)=O)c2C)c2c1C(=O)CCCC2` [RMM21, N-(2-Methyl-3-(3-methyl-4-oxo-2,4,5,6,7,8-hexahydrocyclohepta[c]pyrrol-1-yl)phenyl)methanesulfonamide] showed a Kd of 2.76 µM.
Compound `Cc1cc(C#N)ccc1-c1[nH]c(C)c2c1CCCCC2=O` [RMM22, 3-Methyl-4-(3-methyl-4-oxo-2,4,5,6,7,8-hexahydrocyclohepta[c]pyrrol-1-yl)benzonitrile] has a Kd of 2.34 µM.
For `Cc1cc(C#N)cc(C)c1-c1[nH]c(C)c2c1CCCCC2=O` [RMM24, 3,5-dimethyl-4-(3-methyl-4-oxo-2,4,5,6,7,8-hexahydrocyclohepta[c]pyrrol-1-yl)benzonitrile], the Kd was 1.22 µM.
Compound `Cc1cc(C(N)=O)cc(C)c1-c1[nH]c(C)c2c1CCCCC2=O` [RMM25, 3,5-Dimethyl-4-(3-methyl-4-oxo-2,4,5,6,7,8-hexahydrocyclohepta[c]pyrrol-1-yl)benzamide] has a Kd of 0.896 µM.

Same assay, conditions: K D, 25 °C, PBS pH 7.4
In the case of `Cc1[nH]c(-c2cc(N)ccc2Cl)c2c1C(=O)CCCC2` [MPM6, reference compound], the Kd is reported as 4.53 µM.

These compounds were tested on P. falciparum 3D7 (assay: Malaria SYBR green I based fluorescence assay, dose response, 3D7). Settings: Plasmodium falciparum, blood stage culture, 72 hours, mean (SD), 1 to 3 biological replicates.
Format: cell-based
Experimental: as §1, §2, §3, §4, §5
`Cc1cc(C(N)=O)cc(C)c1-c1[nH]c(C)c2c1CCCCC2=O` [RMM25, 3,5-Dimethyl-4-(3-methyl-4-oxo-2,4,5,6,7,8-hexahydrocyclohepta[c]pyrrol-1-yl)benzamide] was tested, and the EC50 was 19 µM.

The compounds below were run on 3D7::PfBDP1HADD parasites (assay: Dose-response assay in conditional PfBDP1 knockdown parasites). Settings: 10 nM Shld1 compared to 500 nM Shld1, 72 h.
Format: cell-based, Plasmodium falciparum
Description: To validate whether the compounds indeed target the BRD of PfBDP1, we utilized a conditional KD system to modulate the expression levels of PfBDP1 in situ.^[ [15] ^] In the 3D7::PfBDP1HADD line, PfBDP1 is fused at its C‐terminus to a ligand‐regulatable FKBP destabilization domain (DD) that targets the fusion protein for proteasomal degradation but can be stabilized by the Shield1 ligand, and 3xHA epitope tags for detection ^11. […] In contrast, the EC50 of chloroquine was unchanged.
A) Western Blot analysis of 3D7::PfBDP1HADD parasites cultivated in the presence of Shield1 (Shld) in concentrations ranging from 0 to 500 nM over 72 h in duplicates. PfBDP1HADD was detected by anti‐HA antibodies. Histone 3 (H3) was probed as a loading control. […] Growth was determined relative to DMSO controls for each condition after 72 h of culture. N = 4 replicates. […] Binding of PfBDP1HA to target loci was calculated as enrichment relative to histone H3 ChIP performed in parallel. Shown are individual values and median of one representative experiment with technical duplicates. Paired t‐test, p = 0.0015. […]
resistant strain K1, MRA-159, contributed by Dennis E. Kyle. The NF54::PfBDP1HA parasite line was generated by transfection of NF54 parasites with the plasmid pSLI_PfBDP1_3xHA and selection linked integration of the construct in the presence of G418[21]. […]
as §4
SYBR Green I based fluorescence assays to determine dose-response curves were performed essentially as described previously (Leidenberger et al., 2017). […] After 72 hours, cultures were lysed in lysis buffer (20 mM Tris-HCl, 5 mM EDTA, 0.008% saponin (Sigma-Aldrich), 0.08% Triton X (Sigma-Aldrich), 1:10,000 SYBR Green I dye (Invitrogen)) and fluorescence was measured in a Fluoroskan Ascent FL reader (excitation: 485 nm, emission: 530 nm). […]
For `Cc1cc(C(N)=O)cc(C)c1-c1[nH]c(C)c2c1CCCCC2=O` [RMM25, 3,5-Dimethyl-4-(3-methyl-4-oxo-2,4,5,6,7,8-hexahydrocyclohepta[c]pyrrol-1-yl)benzamide], the “change of sensitivity (dose-response, EC50) under partial PfBDP1 knockdown” value was “moderately increased sensitivity”.
For `CCN(CC)CCCC(C)Nc1ccnc2cc(Cl)ccc12` (centres unmarked) [chloroquine, Chloroquine, reference compound], the “change of sensitivity (dose-response, EC50) under partial PfBDP1 knockdown” value was “unchanged”.
